Entries after “also recorded” stand apart in the source; their conditions may differ. Where no end group is shown, it is not given here.
How the values were obtained:
[1] = system: Human colonic CCD-18Co fibroblasts; assay: TGF-β1-induced fibrogenesis in CCD-18Co fibroblasts; format: cell-based
Method: Cleveland Clinic IRB directives (IRB #17-1167). Primary non-IBD patient-derived colonic fibroblasts (H6231) were purchased from Cell Biologics. All primary colonic fibroblasts were cultured in fibroblast medium (M2267, Cell Biologics). Human colonic CCD-18Co fibroblasts (ATCC) were cultured in minimal essential medium Eagle's medium (MEM) containing 10% fetal bovine serum and 1% penicillin-streptomycin 6, 20. All fibroblasts were grown to 80% confluence and then switched to serum-free media overnight for experiments.
For activation of protease-activated receptors (PARs), fibroblasts were pretreated with 0.8% DMSO, 10 μM PAR1 agonist TRAP-6 (HY-P0078, MCE), 10 μM PAR2 agonist SLIGKV-NH2 (Protease-Activated Receptor-2, amide, HY-P0283, MCE), or 0.4 μg/ml PAR2-activating protease recombinant cathepsin S (1183-CY-010, R&D Systems) for 30 minutes. For miR205-5p activation, fibroblasts were transfected with (30 picomoles/well) either control (YM00479902) or miR205-5p miRCURY LNA mimic (YM00472340) from Qiagen via Lipofectamine 3000 transfection reagent (L3000001, ThermoFisher) in Opti-MEM (#31985062, ThermoFisher) overnight. For miR205-5p inhibition, fibroblasts were pretreated with 50nM either control (Y100199006) or miR205-5p power inhibitors (Y104101508-DDA) from Qiagen overnight. For overexpression of zinc finger E-box homeobox 1 (ZEB1), fibroblasts were infected with […] infectious units/plate either control (PS100064V) or human ZEB1-overexpressing lentivirus (RC217704L1V) from Origene, Inc. overnight.
The fibroblasts were pretreated with either 0.1% TFA (vehicle), 10 ng/ml transforming growth factor-beta 1 (TGF-p1), or 100 μg/ml serum exosomes from stricturing CD (CDSE) patients for two hours to induce fibrogenesis, followed by incubation with elafin (AS-61641, Anaspec) for 2-24 hours. Serum exosomes from CD patients were used to mimic the chemical environment of CD [12]. At the end of the experiments, the cells were lysed with either RLT buffer for RNA experiments or radioimmunoprecipitation assay (RIPA) buffer for ProCOL1A1 (DY6220-05, R&D Systems), COL1A2 (MBS2701496, MyBioSource), ZEB1 (MBS774017, MyBioSource), or phosphorylated ERK1/2 (DYC1018B, R&D Systems) ELISAs.

TNBS-treated mice = assay: TNBS-associated colonic fibrosis in mice; format: in vivo
Method: Eight-week-old male and female CD-1 mice (#022, Charles River Laboratories) were injected with 50pL TNBS solution (to induce colonic fibrosis) or 30% ethanol (vehicle) via enema weekly for five weeks. After the last TNBS injection, the mice were held for two additional weeks to develop colonic fibrosis. Some of the mice were injected with 5 μg/mouse of either control (PS100001) or elafin-expressing construct (RC203136) from
Origene via InvivoJetPEI transfection reagent (201-10G, Polyplus) intracolonically on the 9th day after the last TNBS injection or five days before the end of experiment.
Some of the mice received either a single intraperitoneal injection of 10 mg/kg anti-tumor necrosis factor-alpha (anti-TNFα) neutralizing antibody (6E0058, BioXCell) or oral antibiotic mixture in drinking water ad libitum from the 9th day after the last TNBS injection to the endpoint of the experiment. The antibiotics mixture contains kanamycin (0.4 mg/mL), gentamicin (0.035 mg/mL), colistin (850 U/mL), metronidazole (0.215 mg/mL), and vancomycin (0.045 mg/mL), which was routinely used by our laboratory for suppressing intestinal microbiota.
For PAR1/2 activation, some of the mice were injected with DMSO (50pL/mouse), 5 mg/kg PAR1 agonist TRAP-6, or 5 mg/kg PAR2 agonist SLIGKV-NH2 via enema on the 9th, 11th, and 13th days after the last TNBS injection.
For miRNA inhibition, some of the mice were injected with 5 mg/kg either control inhibitor or miR205-5p power inhibitor (Qiagen) […] via enema on the 9th, 11th, and 13th days after the last TNBS injection.
For Zeb1 manipulation, some mice received a single intraperitoneal injection (10^7 infectious units/mouse) of control lentivirus (PS100064V), Zeb1-overexpressing lentivirus (MR223095L2V), or Zeb1-shRNA lentivirus (TL513177V) from Origene, Inc. nine days after the last TNBS injection.
Dr. Xingguo Cheng produced the oral elafin-Eudragit-FS3OD formulation via a material transfer agreement (UCLA MTA2019-00000337) with the Southwest Research Institute (SWRI) in Texas. […] The mice were fed with either control-Eudragit or elafin-Eudragit in mildly acidified (pH 5) water containing 0.5% hydroxypropyl methylcellulose (HPMC) daily via oral gavage during the last five days of the experiment.
H&E and Masson Trichrome (MT) staining were performed as described previously. Microphotographs were recorded at multiple locations and scored by two investigators blindly. Intestinal injuries were scored (0-12). The severity of intestinal fibrosis was assessed by MT staining and scored (0-3). ZEB1 immunohistochemistry was performed using an anti-ZEB1 antibody (HPA027524, Sigma).
Total RNA was isolated by an RNeasy kit (#74104, Qiagen) and reverse transcribed into cDNA by a high-capacity cDNA reverse transcription kit (#4368813, ThermoFisher). PCR reactions were run with Taq Universal SYBR Green Supermix (1725120, Bio-Rad) and TaqMan real-time PCR assays (ThermoFisher) in a Bio-Rad CFX384 system. For the determination of miRNA expression, RNA was converted to cDNA using miRCURY LNA RT kit. PCR reactions were run with miRCURY LNA SYBR Green PCR kit and miRCURY LNA PCR assays (Qiagen). Relative mRNA/miRNA quantification was performed by comparing test groups and control groups after normalization with endogenous control genes. The fold changes are expressed as […]. […]
Overall disease activity (ODA) was calculated by % change of histology and fibrosis scores and colonic mRNA expression of fibrosis- and inflammation-related genes. […]

Substance	effect on elafin-mediated miR205-5p induction and ZEB1 inhibition ([1]; TGF-β1-treated CCD-18Co fibroblasts, agonist 10 μM)	effect on elafin-mediated inhibition of collagen expression ([1]; TGF-β1-treated CCD-18Co fibroblasts, elafin 1 μg/ml)	colonic injury and fibrosis (TNBS-treated mice; TNBS-treated mice)	colonic miR205-5p expression (TNBS-treated mice; TNBS-treated mice)	effect on elafin-mediated inhibition of colonic injury, fibrosis and fibrogenic gene expression (TNBS-treated mice; TNBS-treated mice with intracolonic elafin overexpression)	TGF-β1 induced COL1A2 and ProCOL1A1 protein expression ([1]; CCD-18Co, ELISA of cell lysates)	TGF-β1-induced COL1A2 (collagen) mRNA expression ([1]; TGF-β1 10 ng/ml, elafin (0.1-10 micrograms/ml) added two hours later, 24 hours)	ZEB1 mRNA and protein expression ([1]; TGF-β1-/CD serum-exosome-treated human colonic fibroblasts)	miR205-5p expression ([1]; TGF-β1-treated CCD-18Co fibroblasts)	miR205-5p expression ([1]; TGF-β1-treated CCD-18Co fibroblasts, listed as elafin)	overall disease activity (TNBS-treated mice; TNBS models)
SLIGKV-NH2 [PAR2 agonist, reference compound]	reversed	reversed	did not affect	diminished	reversed	–	–	–	–	–	–
Elafin: small (6 kDa) human elastase-specific protease inhibitor and antimicrobial peptide; active form SEQ ID NO: 2 (AQEPVKGPVSTKPGSCPIILIRCAMLNPPNRCLKDTDCPGIKKCCEGSCGMACFVPQ; listed as Homo sapiens)	–	–	–	–	–	reversed	significantly reduced; also recorded: reversed	decreased; also recorded: diminished	increased	significantly increased	7-11%

— patent publication US20230405078A1, “DETECTION AND TREATMENT OF INTESTINAL FIBROSIS” (THE REGENTS OF THE UNIVERSITY OF CALIFORNIA, priority 2020, published 2023)
